From US20150111864A1, “CRYSTALLINE FORM OF A BETA-LACTAMASE INHIBITOR” (Cubist Pharmaceuticals, Inc., priority 2013, published 2015)

Tests used:
[1] = system: Eco isogenic strain expressing OXA-15; assay: Synergy MIC (sMIC) assay; format: cell-based, Escherichia coli; conditions: β-Lactam CXA-101 at 4 μg/mL; OXA-15, isogenic Eco
Method: (§1) The synergy MIC (sMIC) assay determines the concentration of the BLI required to potentiate the activity of a fixed concentration of a β-lactam antibiotic against β-lactamase producing bacterial strains. The experimental protocol was performed according to Clinical and Laboratory Standards Institute (CLSI) guidelines with modifications as described below (CLSI guidelines can be derived from the CLSI document M07-A9 published in January 2012: “Methods for Dilution Antimicrobial Susceptibility Tests for Bacteria That Grow Aerobically; Approved Standard-Ninth Edition”). The assay wa set-up by serially diluting the BLI across 11 of the 12 wells in each row of a 96-well broth microdilution assay plate, adding the β-lactam at a fixed concentration to all wells in the assay plate, inoculating the assay plate with bacterial strains, and determining the lowest concentration of BLI required to inhibit overnight bacterial growth.
(§2) Frozen glycerol stocks of laboratory engineered, isogenic E. coli strains, which contain cloned β-lactamase expressing plasmids were used to streak for isolated colonies on rich, selective LB agar supplemented with 25 μg/mL tetracycline to maintain the plasmid. All strains were incubated at 37° C. for 18-24 hrs.
(§3) On the day of testing, primary cultures were started by scraping off 5-10 colonies from the TSAB plates containing clinical strains or the tetracycline supplemented LB plates containing engineered strains. The clinical strain material was suspended in ˜5 mL of cation adjusted Mueller Hinton Broth (CAMHB) in 14 mL culture tubes. The engineered strain material was suspended in CAMHB (supplemented with tetracycline at 25 μg/mL) in 14 mL culture tubes. All strains were incubated at 37° C. with aeration (200 rpm) for ≧2 hrs until the OD600 was ≧0.1.
(§4) The two compound components of the assay were each prepared in CAMHB and added to the 96-well broth microdilution assay plates. 50 μL of the BLI was added to each well of the assay plate in 2-fold dilutions with final concentrations ranging from 128 to 0.13 μg/mL. 25 μL of the β-lactam was added to all wells in the broth microdilution plates at a final concentration of 4 μg/mL. Inoculum cultures were prepared by standardizing the primary cultures to OD600=0.1 and then adding 20 μL of the adjusted primary culture per 1 mL CAMHB for clinical strains or CAMHB (supplemented with tetracycline at 100 μg/mL) for isogenic strains, so that the final inoculum density was ˜10^5 colony forming units per milliliter. Diluted inoculum cultures were used to inoculate 25 μL per well in 96-well broth microdilution assay plates. The final volume of each well was 100 μL and contained a BLI at different concentrations, a β-lactam at 4 μg/mL concentration, the bacterial culture at an OD600 of approximately 0.001 and when necessary tetracycline at 25 ug/mL.
(§5) Plates were incubated for 18-20 hours at 37° C. with aeration (200 rpm). Following incubation, growth was confirmed visually placing plates over a viewing apparatus (stand with a mirror underneath) and then OD600 was measured using a SpectraMax 340PC384 plate reader (Molecular Devices, Sunnyvale, Calif.). Growth was defined as turbidity that could be detected with the naked eye or achieving minimum OD600 of 0.1. sMIC values were defined as the lowest concentration producing no visible turbidity. […]

[2] = system: Eco isogenic strain expressing P99; assay: Synergy MIC (sMIC) assay; format: cell-based, Escherichia coli; conditions: β-Lactam CXA-101 at 4 μg/mL
Method: as §1, §2, §3, §4, §5

[3] = system: Eco isogenic strain expressing SHV-12; assay: Synergy MIC (sMIC) assay; format: cell-based, Escherichia coli; conditions: β-Lactam CXA-101 at 4 μg/mL; SHV-12, isogenic Eco
Method: as §1, §2, §3, §4, §5

[4] = system: Eco isogenic strain, β-Lactamase none; assay: Synergy MIC (sMIC) assay; format: cell-based, Escherichia coli; conditions: β-Lactam none
Method: as §1, §2, §3, §4, §5

[5] = system: Eco isogenic strain expressing CTX-M-15; assay: Synergy MIC (sMIC) assay; format: cell-based, Escherichia coli; conditions: β-Lactam CXA-101 at 4 μg/mL; CTX-M-15, isogenic Eco
Method: as §1, §2, §3, §4, §5

Ecl.569 (AmpC, clinical) = assay: Standard BLI Potentiation MIC Assay in Combination with Ceftolozane; format: cell-based, Enterobacter spp; conditions: Ecl.569, AmpC, clinical; BLI at 4 μg/mL
Method: (§6) The experimental protocol was performed according to Clinical and Laboratory Standards Institute (CLSI) guidelines with modifications as described below (CLSI guidelines can be derived from the CLSI document M07-A9 published in January 2012: “Methods for Dilution Antimicrobial Susceptibility Tests for Bacteria That Grow Aerobically; Approved Standard-Ninth Edition”).
as §2
(§7) On the day of testing, primary cultures were started by scraping off 5-10 colonies from the TSAB plates containing clinical strains or the tetracycline supplemented LB plates containing engineered strains. […]
as §5, with “0.1.” for “0.1. sMIC values were defined as the lowest concentration producing no visible turbidity.”

[6] = system: Panel of Isogenic and Clinical Strains Expressing β-Lactamases; assay: Standard BLI Potentiation MIC Assay in Combination with Ceftolozane, whole panel; format: cell-based; conditions: panel of 24 strains; BLI at 4 μg/mL
Method: as §6, §2
as §3, with “with” for “with tetracycline at”, “μg/mL tetracycline)” for “μg/mL)”, “˜2” for “≧2”, “optical density at 600 nm (OD600)” for “OD600”
(§8) The two compound components of the assay were each diluted in CAMHB and added to the 96-well broth microdilution assay plates. 50 μL of the β-lactam was added to each well of the assay plate in 2-fold dilutions with final concentrations ranging from 128 to 0.13 μg/mL. 25 μL of the BLI compound was added to all wells in the broth microdilution plates at a final concentration of 4 μg/mL. Inoculum cultures were prepared by standardizing the primary cultures to OD600=0.1 and then adding 20 μL of the adjusted primary culture per 1 mL CAMHB for clinical strains or CAMHB (supplemented with tetracycline at 100 μg/mL) for engineered strains, so that the final inoculum density was ˜10^5 colony forming units per milliliter. Diluted inoculum cultures were used to inoculate 25 μL per well in 96-well broth microdilution assay plates. The final volume of each well was 100 μL and contained a β-lactam at different concentrations, a BLIcompound at 4 μg/mL concentration, the bacterial culture at an OD600 of approximately 0.001 and when necessary tetracycline at 25 μg/mL.
as §5, with “0.1.” for “0.1. sMIC values were defined as the lowest concentration producing no visible turbidity.”

[7] = system: Eco.2491 (CMY-2, clinical); assay: Standard BLI Potentiation MIC Assay in Combination with Ceftolozane; format: cell-based, Escherichia coli; conditions: Eco.2491, CMY-2, clinical; BLI at 4 μg/mL
Method: as §6, §2
as §3, with “with” for “with tetracycline at”, “μg/mL tetracycline)” for “μg/mL)”, “˜2” for “≧2”, “optical density at 600 nm (OD600)” for “OD600”
as §8
(§9) Plates were incubated for 18-20 hours at 37° C. with aeration (200 rpm). Following incubation, growth was confirmed visually placing plates over a viewing apparatus (stand with a mirror underneath) and then OD600 was measured using a SpectraMax 340PC384 plate reader (Molecular Devices, Sunnyvale, Calif.). Growth was defined as turbidity that could be detected with the naked eye or achieving minimum OD600 of 0.1. MIC values were defined as the lowest concentration producing no visible turbidity.

[8] = system: Eco.2843 (DHA-1, isogenic); assay: as above; format: cell-based, Escherichia coli; conditions: Eco.2843, DHA-1, isogenic; BLI at 4 μg/mL
Method: as §6, §2
as §3, with “with” for “with tetracycline at”, “μg/mL tetracycline)” for “μg/mL)”, “˜2” for “≧2”, “optical density at 600 nm (OD600)” for “OD600”
as §8, §9

[9] = system: Eco.2845 (OXA-15, isogenic); assay: as above; format: cell-based, Escherichia coli; conditions: Eco.2845, OXA-15, isogenic; BLI at 4 μg/mL
Method: as §6, §2
as §3, with “with” for “with tetracycline at”, “μg/mL tetracycline)” for “μg/mL)”, “˜2” for “≧2”, “optical density at 600 nm (OD600)” for “OD600”
as §8, §9

Cfr.568 (AmpC, clinical) = assay: as above; format: cell-based, Citrobacter spp; conditions: Cfr.568, AmpC, clinical; BLI at 4 μg/mL
Method: as §6, §2, §7
as §5, with “0.1.” for “0.1. sMIC values were defined as the lowest concentration producing no visible turbidity.”

[10] = system: Pae.2757 (AmpC over-expn, clinical); assay: as above; format: cell-based, Pseudomonas aeruginosa; conditions: Pae.2757, AmpC over-expn, clinical; BLI at 4 μg/mL
Method: as §6, §2
as §3, with “with” for “with tetracycline at”, “μg/mL tetracycline)” for “μg/mL)”, “˜2” for “≧2”, “optical density at 600 nm (OD600)” for “OD600”
as §8, §9

[11] = system: Pae.2863 (AmpC de-repress, clinical); assay: as above; format: cell-based, Pseudomonas aeruginosa; conditions: Pae.2863, AmpC de-repress, clinical; BLI at 4 μg/mL
Method: as §6, §2
as §3, with “with” for “with tetracycline at”, “μg/mL tetracycline)” for “μg/mL)”, “˜2” for “≧2”, “optical density at 600 nm (OD600)” for “OD600”
as §8, §9

[12] = system: Pae.2885 (AmpC, clinical); assay: as above; format: cell-based, Pseudomonas aeruginosa; conditions: Pae.2885, AmpC, clinical; BLI at 4 μg/mL
Method: as §6, §2
as §3, with “with” for “with tetracycline at”, “μg/mL tetracycline)” for “μg/mL)”, “˜2” for “≧2”, “optical density at 600 nm (OD600)” for “OD600”
as §8, §9

Substance: (2S,5R)-2-(5-(3-aminopropyl)-1,3,4-oxadiazol-2-yl)-7-oxo-1,6-diazabicyclo[3.2.1]octan-6-yl hydrogen sulfate [ψ]
- sMIC [1]: B (B = 1-2 μg/mL)
- sMIC [2]: B (B = 1-2 μg/mL)
- sMIC [3]: B (B = 1-2 μg/mL)
- sMIC [4]: D (D = 16-32 μg/mL)
- sMIC [5]: A (A = 0.25-0.5 μg/mL)
- MIC of Ceftolozane in combination with BLI (Ecl.569 (AmpC, clinical)): A (A = 0.25-0.5 μg/mL)
- MIC50 of Ceftolozane in combination with BLI [6]: A (A = 0.25-0.5 μg/mL)
- MIC90 of Ceftolozane in combination with BLI [6]: B (B = 1-2 μg/mL)
- MIC of Ceftolozane in combination with BLI [7]: AA (AA = <0.25 μg/mL)
- MIC of Ceftolozane in combination with BLI [8]: AA (AA = <0.25 μg/mL)
- MIC of Ceftolozane in combination with BLI [9]: B (B = 1-2 μg/mL)
- MIC of Ceftolozane in combination with BLI (Cfr.568 (AmpC, clinical)): A (A = 0.25-0.5 μg/mL)
- MIC of Ceftolozane in combination with BLI [10]: B (B = 1-2 μg/mL)
- MIC of Ceftolozane in combination with BLI [11]: B (B = 1-2 μg/mL)
- MIC of Ceftolozane in combination with BLI [12]: A (A = 0.25-0.5 μg/mL)
